The subject of one assay is wound beds. Briefly: Immunostaining of healing wounds. The conditions noted are these: Tlr3−/− mice. In kind it is in vivo, mouse. As for the experimental part: Wound Induced Hair Neogenesis (WIHN). All experiments were followed with the present inventors' WIHN protocol^1,9. Briefly, hair was shaved and a 1.2 cm^2 full-thickness skin on the backs of 21-day old (telogen) male and female mice was removed by sterile scissors. A single treatment of RA (30 μl) (0.1 μg per mouse) (Millipore Sigma, R2625) and BMS493 (30 μl) (0.1 μg per mouse) (Cayman Chemical, #17418) was applied topically onto open wound on WD1 of Tlr3^−/− and WT mice, respectively. Poly (I:C) (50 μl) (5 μg per mouse) (Invivogen, tlrl-pic) was injected under the healed scab on WD3 of WT mice as described before^9,34. On WD20-24, numbers of regenerated hair follicles were visualized and quantified in the re-epithelialized skin by non-invasive confocal scanning laser microscopy (CSLM) (Caliber I.D., VIVASCOPE 1500) as published^1,9. As a vehicle (Control), ethanol (EtOH), dimethylsulfoxide (DMSO), or PBS was treated for RA, BMS493, and Poly (I:C), respectively.
Immunofluorescence. […] Fluorescence images were observed by fluorescence microscopy (Leica microsystems), taken pictures with ×100 (low magnification) and ×200 (high magnification), and saved as image files.

Assay [1] deals with wound tissues of Tlr3−/− mice. Briefly: Microarray gene ontology analysis of wound tissue. The conditions noted are these: Tlr3−/− mice treated with RA. It counts as in vivo, mouse. From the text:
Microarray analysis. RNA isolated from keratinocytes with or without Poly (I:C) (GSE92646) and mouse wound tissues from wild type (C57BL/6NJ) and Tlr3^−/− with BMS493 and RA were submitted to the JHMI Deep Sequencing & Microarray core for Affymetrix® Human Exon 1.0ST and mouse microarray chip according to manufacturer's protocols. Raw gene expression signals in the form of Affymetrix CEL files were extracted and normalized with Partek® Genomics Suite™ software using the Robust Multichip Analysis (RMA) algorithm. Genes were ranked according to fold change of the intervention, and referred to as top or bottom induced if they are at the highest fold change (top) or lowest fold change (bottom). The significance of gene expression was measured by student's t-test analysis. These datasets generated during the current study are available in the NCBI GEO repository as listed above.

Another assay has as its system cells. The assay is described as follows: Entry of dsRNA (PIC) into cells, stain (Example 2). It counts as cell-based. The conditions noted are these: after pre-treatment with RA.

Here are results for 2 molecules from patent US11969402B2, “Compositions and methods for skin rejuvenation” (THE JOHNS HOPKINS UNIVERSITY, priority 2019, dated 2024).

In the case of `CC1=C(/C=C/C(C)=C/C=C/C(C)=C/C(=O)O)C(C)(C)CCC1` [RA, all-trans-retinoic acid], the “Krt15 immunostaining in wounds” value with wound beds was “induces prominent Krt15”. The “gene ontology categories in microarray analysis” value in assay [1] was “substantial enrichment of gene ontology categories pertaining to development and morphogenesis”.

In the case of “Polyinosinic-polycytidylic acid [Poly (I:C)]”, the “accumulation of PIC in cells” value in the assay on cells was “much more effectively”.
